Test results reported in patent publication US20260055065A1, “PYRIDAZINONE COMPOUNDS WHICH MODULATE MUTANT PROTEINS FOR TREATING RESPIRATORY DISEASES” (The Hospital for Sick Children, priority 2022, published 2026).

Assays:
Format in all cases: cell-based
Wt-CFTR [1] = target: T1, Wt-CFTR (Homo sapiens, UniProt P13569); test: Calu-3 CSE experiments, FLiPR assay of CFTR channel activity; set-up: this airway epithelial cell line endogenously expresses this channel; endogenous in cells; host or cells: Calu-3
Procedure: Addition of CFTR-inhibitor indicated with grey arrow. Superimposed, we show the effect of acute co-application of VX-770 (open squares) or SK-POT (open triangles) with forskolin. […] Only SK-POT rescued CFTR channel function in the presence of cigarette smoke extract.
Calu-3 cells were cultured using EMEM (Wisent) supplemented with FBS at 20% (v/v) and 1× Penicillin/Streptomycin (Wisent). Calu-3 cells were seeded on clear-bottom, black-walled 96 well plates (Costar, Corning) at a density of 10,000 cells/well and cultured for 2 days post-confluence. Cells then received the chronic treatment of toxin and potentiator. The toxin treatment consisted of either cigarette smoke extract (CSE) prepared in 100% DMSO (University of Alabama at Birmingham), dissolved at a concentration of 2% (v/v) in Calu-3 medium, with an equivalent concentration of DMSO alone serving as the toxin control. The chronic drug treatment was co-applied with the toxin, which included either VX-770 or Compound 11 (both prepared in 100% DMSO) dissolved in Calu-3 medium at a final concentration of 1 μm. VX-770 (Vertex) and Compound 11 solutions were prepared from 1 mM stocks. The control for the drug treatment was the vehicle, DMSO at an equivalent volume. Combining the two toxin treatments and three drug treatments, a total of six treatments were applied chronically to 4 wells per condition, for a total of 24 wells receiving chronic treatment.
Cells were cultured for an additional 24 hours after chronic treatment application, after which cells were incubated with FLiPR assay buffer. The FLiPR assay buffer consisted of blue FLiPR dye (Molecular Devices) dissolved at a concentration of 0.5 mg/mL in chloride-free buffer (150 mM NMDG, 150 mM gluconolactone, 3 mM potassium gluconate, 300 mOsm and pH 7.38). Buffer was incubated with cells at 37 degrees and 5% CO2 for 35 minutes. CFTR function was assessed by measuring changes in fluorescence activity after acute CFTR channel activation by addition of cAMP agonist forskolin dissolved in chloride-free buffer to a final concentration 1 μm, using the SpectraMax i3x multimodal plate reader. Fluorescence readings (excitation 530 nm; emission 560 nm) for each well were taken at 30-second intervals for 5 minutes (baseline) or 10 minutes (activation). CFTR activity was then terminated by addition of CFTR-inhibitor 172 dissolved in chloride-free buffer to a concentration of 10 μm, to further verify the specificity of the response to CFTR activity. Fluorescence changes were recorded at 30-second intervals for another 10 minutes. In analysis, all fluorescence values were normalized per well to the final reading prior to the addition of forskolin and expressed as a percentage of this reading.

CFTR = target: T2, CFTR (Mustela putorius furo, UniProt Q07E16); test: Ussing chamber, primary bronchial epithelial cultures from adult ferret trachea; conditions: 1 μM, after forskolin 100 nM
T2 construct: primary bronchial epithelial cultures prepared from adult ferret trachea; from tissue; host or cells: primary bronchial epithelial cultures from adult ferret trachea
Procedure: Student's “t” test was conducted.

Wt-CFTR [2] = target: T1, Wt-CFTR; test: Ussing chamber short circuit current, primary human bronchial epithelial cultures; conditions: 1 μM, after forskolin 100 nM
Procedure: The impact of SK-POT (compound 11) in potentiating Wt-CFTR mediated transepithelial chloride conduction in primary human bronchial epithelial cultures was then tested.

T1 sequence (P13569 whole entry): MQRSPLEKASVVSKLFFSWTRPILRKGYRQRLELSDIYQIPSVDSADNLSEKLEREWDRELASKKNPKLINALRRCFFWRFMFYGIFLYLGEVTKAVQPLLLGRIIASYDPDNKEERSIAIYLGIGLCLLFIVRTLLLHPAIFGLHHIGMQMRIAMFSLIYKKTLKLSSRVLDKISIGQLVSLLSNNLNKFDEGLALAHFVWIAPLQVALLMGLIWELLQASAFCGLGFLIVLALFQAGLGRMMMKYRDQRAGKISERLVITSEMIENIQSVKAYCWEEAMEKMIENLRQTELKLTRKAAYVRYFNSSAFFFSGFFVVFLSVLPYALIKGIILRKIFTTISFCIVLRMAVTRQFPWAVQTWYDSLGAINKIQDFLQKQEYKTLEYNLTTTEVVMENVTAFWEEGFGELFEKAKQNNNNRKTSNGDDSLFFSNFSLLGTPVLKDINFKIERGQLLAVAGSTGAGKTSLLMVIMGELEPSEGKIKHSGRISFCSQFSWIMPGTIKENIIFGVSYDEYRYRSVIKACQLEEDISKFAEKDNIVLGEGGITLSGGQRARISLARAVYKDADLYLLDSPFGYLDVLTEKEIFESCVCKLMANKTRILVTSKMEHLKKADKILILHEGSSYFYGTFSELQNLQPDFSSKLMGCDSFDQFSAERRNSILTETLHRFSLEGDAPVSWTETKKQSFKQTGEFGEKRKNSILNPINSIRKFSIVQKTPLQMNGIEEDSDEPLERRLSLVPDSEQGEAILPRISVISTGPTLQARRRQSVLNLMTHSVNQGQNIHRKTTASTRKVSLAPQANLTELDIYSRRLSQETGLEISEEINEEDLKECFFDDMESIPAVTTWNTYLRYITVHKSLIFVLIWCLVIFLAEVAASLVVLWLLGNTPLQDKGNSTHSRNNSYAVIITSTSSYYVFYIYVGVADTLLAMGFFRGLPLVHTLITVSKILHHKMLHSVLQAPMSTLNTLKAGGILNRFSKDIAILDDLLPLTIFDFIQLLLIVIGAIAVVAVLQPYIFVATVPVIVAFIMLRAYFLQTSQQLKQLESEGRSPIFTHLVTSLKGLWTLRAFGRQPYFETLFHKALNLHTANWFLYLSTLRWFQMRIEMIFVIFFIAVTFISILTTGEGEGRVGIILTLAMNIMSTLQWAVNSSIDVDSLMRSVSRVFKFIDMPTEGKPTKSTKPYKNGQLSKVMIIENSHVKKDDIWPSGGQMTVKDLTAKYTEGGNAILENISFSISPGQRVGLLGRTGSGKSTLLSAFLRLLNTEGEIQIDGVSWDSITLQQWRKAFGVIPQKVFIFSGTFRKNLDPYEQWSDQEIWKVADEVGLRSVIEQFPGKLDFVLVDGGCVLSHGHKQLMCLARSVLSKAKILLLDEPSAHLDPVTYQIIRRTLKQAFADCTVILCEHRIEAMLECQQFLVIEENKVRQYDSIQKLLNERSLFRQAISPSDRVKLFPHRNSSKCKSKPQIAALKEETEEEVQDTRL
T2 sequence (Q07E16 whole entry): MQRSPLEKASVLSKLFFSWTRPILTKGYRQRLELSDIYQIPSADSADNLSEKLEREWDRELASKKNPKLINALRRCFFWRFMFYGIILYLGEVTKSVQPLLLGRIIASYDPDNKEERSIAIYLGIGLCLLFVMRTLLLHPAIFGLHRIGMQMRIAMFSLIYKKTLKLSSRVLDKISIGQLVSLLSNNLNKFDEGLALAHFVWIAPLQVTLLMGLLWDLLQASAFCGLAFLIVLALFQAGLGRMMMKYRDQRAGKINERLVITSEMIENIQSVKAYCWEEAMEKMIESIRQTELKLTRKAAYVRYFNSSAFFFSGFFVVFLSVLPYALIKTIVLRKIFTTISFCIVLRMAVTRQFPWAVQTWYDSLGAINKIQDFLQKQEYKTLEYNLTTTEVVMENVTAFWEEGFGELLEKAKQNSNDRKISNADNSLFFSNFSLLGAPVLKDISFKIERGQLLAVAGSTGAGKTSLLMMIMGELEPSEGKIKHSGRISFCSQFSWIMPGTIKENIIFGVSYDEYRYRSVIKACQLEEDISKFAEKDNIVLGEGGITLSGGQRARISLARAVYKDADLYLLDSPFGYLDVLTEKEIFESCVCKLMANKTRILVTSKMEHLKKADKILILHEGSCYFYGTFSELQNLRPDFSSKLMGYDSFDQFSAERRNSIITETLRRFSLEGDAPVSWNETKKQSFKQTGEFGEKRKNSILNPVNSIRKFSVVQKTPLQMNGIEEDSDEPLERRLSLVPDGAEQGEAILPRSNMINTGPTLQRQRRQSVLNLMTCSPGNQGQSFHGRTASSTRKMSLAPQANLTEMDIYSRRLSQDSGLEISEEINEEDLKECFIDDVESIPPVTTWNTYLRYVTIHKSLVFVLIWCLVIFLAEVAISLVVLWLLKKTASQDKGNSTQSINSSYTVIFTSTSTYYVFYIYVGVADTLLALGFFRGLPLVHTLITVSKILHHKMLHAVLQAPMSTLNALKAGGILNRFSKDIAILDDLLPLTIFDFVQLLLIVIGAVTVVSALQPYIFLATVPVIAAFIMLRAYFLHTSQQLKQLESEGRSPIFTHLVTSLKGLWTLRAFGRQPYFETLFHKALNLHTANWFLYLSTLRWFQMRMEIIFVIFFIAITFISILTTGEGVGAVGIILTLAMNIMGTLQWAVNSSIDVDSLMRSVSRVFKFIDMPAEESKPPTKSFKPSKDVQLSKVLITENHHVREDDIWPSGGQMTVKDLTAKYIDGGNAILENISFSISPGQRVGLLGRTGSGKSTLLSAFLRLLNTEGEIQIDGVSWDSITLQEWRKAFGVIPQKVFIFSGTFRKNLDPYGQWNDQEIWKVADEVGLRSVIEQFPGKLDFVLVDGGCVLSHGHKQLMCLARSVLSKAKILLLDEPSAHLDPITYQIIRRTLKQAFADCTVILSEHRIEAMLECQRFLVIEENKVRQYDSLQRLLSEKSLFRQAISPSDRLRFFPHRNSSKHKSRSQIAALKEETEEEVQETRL

Structure (SMILES): CC(C)(C)c1ccc(-n2nc(-c3ccc(F)cc3)c(N3CCCCC3)c(N)c2=O)cc1O [Compound 11, 4-amino-2-(4-(tert-butyl)-3-hydroxyphenyl)-6-(4-fluorophenyl)-5-(piperidin-1-yl)pyridazin-3(2H)-one]
- forskolin-activated CFTR channel activity after CSE exposure (Wt-CFTR [1]; Calu-3, CSE 2%, compounds 1 uM): significant increase in forskolin-activated CFTR channel activity
- EC90 (Wt-CFTR [1]; Calu-3, CFTR channel potentiation, read-out: approximate EC90): ~1 µM
- CFTR channel function in ferret bronchial tissue (CFTR): effective in augmenting CFTR channel function
- forskolin activated short circuit currents mediated by Wt-CFTR (Wt-CFTR [2]): potentiated
